Earlier results on one molecule are cited in US10543256B2, “Stable pharmaceutical formulation comprising a reconstituted pulmonary surfactant composition” (CHIESI FARMACEUTICI S.P.A., priority 2016, dated 2020).

The conditions of the data set: at 25° C.

Regarding `Cl.NC(CO)(CO)CO` [TRIS, Tris(hydroxymethyl)aminomethane hydrochloride], the pKa was 8.06.
